In patent EP0336800A1, “Methods and kit for determining sulfamethazine in animal fluids or feed” (IDETEK, INC., priority 1988, dated 1989):
Values joined by “and” are separate entries in the source; they are usually repeats but may differ in a detail not shown here. Equal entries are not always repeated.

Tested on: anti-sulfamethazine antibody
Experiment: Competitive direct enzyme immunoassay (EIA) with immobilized anti-sulfamethazine antibody and sulfamethazine-HRP conjugate
Type: binding, New Zealand female white rabbits
Settings: for % Cross-Reactivity: (nM of sulfamethazine for 50% binding/nM sulfa analogue for 50% binding) x 100; for % Binding Mean: quadruplicate on 14 different days
Method: Each well of the microtiter plate was filled with 200 µL solution of r-Protein A (2 µg/mL in l0 mM PBS, pH 7.2). These strips were sealed and incubated at 4°C for 5 hours. The r-Protein A solution was aspirated and the wells were washed 5 times with saline-Tween (0.9 percent NaCl containing 0.05 percent Tween-20). Each well was then incubated with 300µL solution of 0.l percent casein in 20 mM PBS, pH 7.2, at 37°C for 30 min and washed as described above. Each well was then filled with 200µL of antibody solution (l2.5 µg/mL in 50 mM carbonate-bicarbonate buffer, pH 9.6) and incubated at 4°C overnight (l5-20 hours). The solution was aspirated and the wells air-dried at room temperature for 2-3 hours. The antibody immobilized microtiter wells thus prepared were stored in ziplock bags at 4°C.
The enzyme conjugate (sulfamethazine-HRP) was appropriately diluted (generally l:l000) with 20 mM PBS, pH 7.2, containing 0.0l percent casein (w/v) and mixed with standards or samples in l0:l ratio. The mixture was transferred to wells ([…]) and incubated at 37°C for l hour. The wells were washed five times with 20 mM PBS, pH 7.2, containing 0.05 percent Tween-20 (v/v). Each well was then filled with l00 µL of ABTS substrate solution (combine l:l (v/v) lmM ABTS, 0.lM citrate, pH 4.0, and 0.0l% thimerosal with 0.0l% H₂O₂, and 0.0l% thimerosal) and incubated at 37°C for about 20 min for color (bluish-green) development. The color development was stopped with l00 µL of l percent SDS solution (w/v). Absorbance of the color was monitored at 405 nm in an EIA plate reader. Percent binding was calculated from the absorbance contained in the absence (B′) and presence (B) of sulfamethazine in standards/samples as follows: % binding = (B/B′) x l00.
A standard curve was prepared by plotting log sulfamethazine concentration vs. percent binding. The content of sulfamethazine in an unknown sample was determined from the standard curve.

Molecule | % Cross-Reactivity | also measured
COc1cc(NS(=O)(=O)c2ccc(N)cc2)nc(OC)n1 [Sulfadimethoxine] | 0.06% | –
Nc1ccc(S(=O)(=O)Nc2ccc(Cl)nn2)cc1 [Sulfachloropyridazine] | 0.0% | –
Cc1nnc(NS(=O)(=O)c2ccc(N)cc2)s1 [Sulfamethizole] | 0.0% | –
Cc1cc(C)nc(NS(=O)(=O)c2ccc(N)cc2)n1 [Sulfamethazine] | 100.0% | competition with sulfamethazine-HRP conjugate for antibody binding (competitive EIA at 0 µg/mL and 0.l µg/mL of sulfamethazine): competed effectively; 50% inhibition in binding (mid-region of the EIA standard curve, standards in swine plasma): around 0.l; % Binding Mean (sulfamethazine standard 0.016 µg/mL): 83.1%; % Binding Mean (sulfamethazine standard 0.031 µg/mL): 76.0%; % Binding Mean (sulfamethazine standard 0.063 µg/mL): 64.2%; % Binding Mean (sulfamethazine standard 0.125 µg/mL): 48.4%; % Binding Mean (sulfamethazine standard 0.25 µg/mL): 31.4%; % Binding Mean (sulfamethazine standard 0.5 µg/mL): 18.3%; % Binding Mean (sulfamethazine standard 1.0 µg/mL): 10.5%
COc1cnc(NS(=O)(=O)c2ccc(N)cc2)nc1 [5-Methoxysulfadiazine] | 0.34% | –
Nc1ccc(S(=O)(=O)F)cc1 [Sulfanilyl fluoride] | 0.0% | –
Cc1ccnc(NS(=O)(=O)c2ccc(N)cc2)n1 [Sulfamerazine] | 12% and 12.10% | –
Nc1ccc(S(=O)(=O)NC(=O)c2ccccc2)cc1 [Sulfabenzamide] | 0.0% | –
NS(=O)(=O)c1ccc(C(=O)O)cc1 [4-Carboxybenzenesulfonamide] | 0.0% | –
Cc1cc(C)nc(N)n1 [2-Amino-4,6-Dimethylpyrimidine] | 0.07% | –
[H]/N=C(/N)NS(=O)(=O)c1ccc(N)cc1 [Sulfaguanidine] | 0.0% | –
CC(=O)NS(=O)(=O)c1ccc(N)cc1 [Sulfacetamide] | 0.66% | –
Nc1ccc(S(=O)(=O)[O-])cc1.O.[Na+] [Sulfanilic acid, sodium salt hydrate] | 0.0% | –
Nc1ccc(S(=O)(=O)Nc2ncccn2)cc1 [Sulfadiazine] | 0.0% | –
Cc1nc(NS(=O)(=O)c2ccc(N)cc2)oc1C [N′-(4,5-Dimethyloxazol-2-yl) sulfanilamide] | 0.0% | –
Nc1ccc(S(=O)(=O)Nc2ccc3cn[nH]c3c2)cc1 [N′-(6-Indazolyl) sulfanilamine] | 0.0% | –
Cc1cc(C(C)(C)C)c(O)c(C(C)(C)C)c1 [2,6-Di-tert.-butyl-4-methyl phenol] | 0.0% | –

Continued, in another order:

% Cross-Reactivity | Molecule | also measured
0.0% | Cc1cc(NS(=O)(=O)c2ccc(N)cc2)nc(C)n1 [Sulfisomidine] | –
0.0% | Nc1ccc(S(=O)(=O)Nc2ccccn2)cc1 [Sulfapyridine] | –
0.0% | Cc1cc(NS(=O)(=O)c2ccc(N)cc2)no1 [Sulfamethoxazole] | –
0.0% | Cc1c[nH]c(=O)[nH]c1=O [Thymine] | –
0.0% | Cc1noc(NS(=O)(=O)c2ccc(N)cc2)c1C [Sulfisoxazole] | –
0.0% | COc1ccc(NS(=O)(=O)c2ccc(N)cc2)nn1 [Sulfamethoxypyridazine] | –
0.0% | NS(N)(=O)=O [Sulfamide] | –
0.0% | CC(=O)Nc1ccc(S(=O)(=O)Nc2ccc([N+](=O)[O-])cc2)cc1 [Sulfanitran] | –
0.07% | Nc1ccc(S(=O)(=O)Nc2nccs2)cc1 [Sulfathiazole] | –
0.0% | Nc1ccc(S(N)(=O)=O)cc1 [Sulfanilamide] | –
0.0% | Nc1ccc(S(=O)(=O)Nc2cnc3ccccc3n2)cc1 [Sulfaquinoxaline] | –
0.0% | Sulfasazine | –
